From ChEMBL document CHEMBL5120840, “Axial chirality and affinity at the GABAA receptor of triazolobenzodiazepines” (Bioorg Med Chem, 2022)
Several values for one entry are separate records, joined by “and”; a condition that tells them apart may be missing. Equal values may be shown once.

Experiments:
[1] = biological target: GABA-A receptor; anion channel; experiment: Displacement of [3H]flunitrazepam from GABAA central benzodiazepine receptor in Wistar rat brain membrane without cerebellum measured after 60 mins by scintillation counting analysis; assay type: cell membranes
[2] = biological target: GABA-A receptor; anion channel (Rattus norvegicus) (UniProt O09028+P15431+P18506+P18508+P19969+P20236+P23574+P23576+P28471+P28473+P30191+P62813+P63079+P63138+Q91ZM7+Q9ES14); experiment: Displacement of [3H]flunitrazepam from GABAA central benzodiazepine receptor in Wistar rat brain membrane without cerebellum measured after 60 mins by scintillation counting analysis relative to control; assay type: cell membranes

Compound	IC50 [1]	inhibition [2] [%]
Cc1cc(Cl)cc2c1-n1cnnc1CN=C2c1ccccc1Cl	23 nM	
Cc1cc(Cl)cc2c1-n1c(C)nnc1CN=C2c1ccccc1	210 nM and 430 nM	< 50
Cc1cc(Cl)cc2c1-n1c(C)nnc1CN=C2c1ccccc1Cl	10.9 nM and 34 nM	< 50
Clc1ccc2c(c1)C(c1ccccc1Cl)=NCc1nncn1-2	1.94 nM	
